Reference: paper PMC12703457, “Dynamic Anchoring of Peptides to the Extracellular Matrix Enabled by Boronic Acid” (Chembiochem, 2025)
“And” between values parts separate entries of the source, which are not always exact repeats. Equal entries are not always repeated. Where two headings read alike, the source gives them in different places. One block for each compound: values may come before it. Bridge positions count the residues as written; N and C are the ends. Square brackets hold non-standard residues; d marks the D form. Peptide text beside a SMILES is read from it. * marks the point of attachment. Benzoyl(4-B(OH)2) = O=C(c1ccc(B(O)O)cc1)*; PEG6 = NCCOCCOCCOCCOCCOCCOCCC(=O)O

Columns and labels:
[1] = cited from earlier work
Experimental: Binding constants of boronic acids and diols have been previously linked to their pKA and pH environment, with phenylboronic acid (pKA = 8.8) showing a binding optimum with ARS at a pH of 7 (1.1 mM^−1).^[ [20] ^]

[2] = ARS competition assay with D‐mannitol; type: binding; conditions: for Association constant K eq with D‐mannitol: ARS competition assay, pH 7.4, 0.1 M phosphate buffer, fluorescence at 572 nm, average of triplicate runs
Experimental: (§1) Affinity toward different monosaccharides was tested quantitatively by an Alizarin Red S (ARS) competition assay. ARS spectroscopic properties change upon the formation of a boronic ester with a boronic acid, resulting in fluorescence.^[ [4] ^, [19] ^] Additionally, the absorbance maximum of ARS shifts to shorter wavelengths upon ester formation, resulting in a color shift from red to orange, which facilitates the recognition of the formed bond (Figures S3 and S4, Supporting Information).
(§2) The assay was performed on a TECAN reader, Infinite M Plex, set up with 96‐well plates (Thermo Scientific, Nr. 137,103).

[3] = Alizarin Red S (ARS) assay, association of boronic acid with ARS; type: binding; conditions: for Association constant K eq with ARS: ARS assay, pH 7.4, 0.1 M phosphate buffer, fluorescence at 572 nm, average of triplicate runs
Experimental: Affinity toward different monosaccharides was tested quantitatively by an Alizarin Red S (ARS) competition assay. ARS spectroscopic properties change upon the formation of a boronic ester with a boronic acid, resulting in fluorescence.^[ [4] ^, [19] ^] […] The affinity of aryl boronic acid to 1,2‐diols is known to be dependent on modifications of the underlying benzene.

[4] = ARS competition assay with D‐(‐)‐fructose; type: binding; conditions: for Association constant K eq with D‐(‐)‐fructose: ARS competition assay, pH 7.4, 0.1 M phosphate buffer, fluorescence at 572 nm, average of triplicate runs
Experimental: as §1, §2

[5] = ARS competition assay with D‐glucamine; type: binding; conditions: for Association constant K eq with D‐glucamine: ARS competition assay, pH 7.4, 0.1 M phosphate buffer, fluorescence at 572 nm, average of triplicate runs; for Interaction with D‐glucamine in ARS competition assay: fluorescence decay at 572 nm, rising D‐glucamine concentrations, pH 7.4, n = 3
Experimental: as §1, §2

[6] = UV‐VIS spectra, shift of ARS absorbance maximum upon ester formation; type: binding; conditions: UV‐VIS spectra in the presence of ARS
From the text: As a positive control, we used 4‐(dihydroxyboryl)benzoic acid coupled to the hydrophilic polymer PEG of 2000 Da, with a similar molecular weight. […] We continued to examine the binding of CBPA‐PEG‐MI to ARS in the presence of D‐glucamine, D‐(‐)‐fructose and D‐mannitol as a competition assay as outlined above (Figure 4B, Figure S11, Supporting Information).
Figure S10: UV-VIS spectra of various peptides bound to ARS or glucamine. CPBA was used as a positive control, while ARS serves as a negative control. (A) UV-VIS-spectra of the peptide CPBA-MI in the presence of ARS- or glucamine. (B) UV-VIS-spectra of the peptide CPBA-PEG-MI in the presence of ARS- or glucamine. (C) UV-VIS-spectra of the peptide Acetyl-MI in the presence of ARS- or glucamine.
Figure S11: Fluorescence decay at 572 nm measured in an ARS competition assay with CPBA-PEG-MI and the negative control acetyl-MI in the presence of rising concentrations of fructose (A) and mannitol (B) as model saccharides at pH 7.4.
Data are shown as mean ± STDEV (n = 3). […]

[7] = biological target: T1, myostatin (Homo sapiens, UniProt O14793); assay: Myostatin inhibition assay, SMAD luciferase reporter in HEK SBE cells; type: cell-based
T1 construct: purchased Bio-techne (Minneapolis)
T1 sequence (O14793 267-375): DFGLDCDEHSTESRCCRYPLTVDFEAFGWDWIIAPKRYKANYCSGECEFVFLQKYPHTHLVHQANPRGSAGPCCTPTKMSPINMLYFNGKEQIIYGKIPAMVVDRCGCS

[8] = test system: fibronectin; assay: SDS‐PAGE of fibronectin incubated with boronic acid dye; type: binding; conditions: physiological pH; distinct fluorescence at 280 kDa
Experimental: Figure 1 A) Fluorescent microscopy of CDM. Green channel: Staining with 10 μM FL2 is shown. Red channel: Staining with a primary antibody (rabbit; Anti‐fibronectin) and secondary antibody (Anti‐Rabbit IgG, CFTM633) is shown. Third channel: Both channels are merged. The negative control was only stained with the antibodies. Every CDM with FL2 was washed several times with either pH 4.1, pH 7.4, or pH 9.4. B) SDS‐PAGE of fibronectin incubated with FL2 under different pH conditions. (1) FL2 incubation at pH 7.4. (2) FL2 incubation at pH 4.1. (3) Coomassie stain for fibronectin. M = molecular standard.
For quantification, fibronectin was immobilized on Enzyme‐Linked Immunosorbent Assay (ELISA) plates before incubation with FL2. Surfaces were similarly treated with acidic, neutral, and basic conditions, and the remaining fluorescence of FL2 was quantified with each washing step (Figure S1, Supporting Information).
SDS‐PAGE was performed as described.^[ [27] ^] For the separation of small molecular weight peptides, tricine‐gel‐electrophoresis (Novex 10–20% Tricine Gel, 1.0 mm × 12 well, Invitrogen by Thermo Fisher Scientific) was performed, using Mini Gel Tanks from Invitrogen under standardized conditions. […] The gel was destained with demineralized water or destaining buffer (10% 10x ws buffer, 20% methanol, 70% Mili‐Q water) and captured using a Gel‐Reader from BioRad.

[9] = test system: cell‐derived decellularized extracellular matrices (CDMs) from NIH‐3T3 fibroblasts; assay: Fluorescence imaging of CDMs with CPBA‐NQEQVSPL‐5/6‐carboxyrhodamine 110; type: binding, murine; conditions: fluorescence microscopy
Experimental: The hydrophilic PEG6 linker within the peptide structure was crucial to ensure sufficient water solubility.
For visualization of fibronectin, the CDMs were first blocked using 1x Roti‐Block for 60 min at RT and washed once with PBS. A combination of Rabbit Anti‐Fibronectin antibody (F3648) (1:400 in PBS, overnight at 4 °C) and Anti‐rabbit IgG (H + L), F(ab’)2 Fragment (Alexa Fluor 647 Conjugate) 4414 (1:200 in PBS, 90 min at RT) was used. […] The dye was removed, and the matrix was washed several times with one of […] different buffers (carbonate/bicarbonate, pH 9.4; 1x PBS, pH 7.4; 1x PBS, pH 8.0, and sodium‐acetate, pH 4.1). Images were taken on an Axio Observer.Z1 microscope equipped with a 63x Plan‐Apochromat […]/1.40 Oil DIC M77 objective (Zeiss), 38 HE Green Fluorescent Reflector (λex = 450–490 nm λem = 500–550 nm), 50 Cy5 Reflector (λex = 625–655 nm λem = 665–715 nm) and a mercury vapor short‐arc lamp.
Figure S9: (A) Fluorescent microscopy of CDM. Green channel: Staining with CBPA-[…]-5/6-Carboxyrhodamine
110 is shown. Red channel: Staining with a primary antibody (rabbit; Anti-fibronectin) and secondary antibody (Anti-Rabbit
IgG, AF647) is shown. Third channel: Both channels are merged. The negative control was only stained with the antibodies.
Every CDM with the CPBA-Peptide was washed several times with either pH 4.1, pH 7.4, pH 8.0 or pH 9.4. […]

[10] = fluorescence decay at 572 nm, rising sugar concentrations, pH 7.4, n = 3

Compound: OB(O)c1ccccc1 [phenylboronic acid]
pKA [1]: 8.8
Binding constant with ARS at binding optimum ([1]; pH of 7): 1.1 mM⁻¹

Compound: NQEQVSPL [CPBA‐peptide]
Association constant K eq with D‐mannitol [2]: 0.22 ± 0.0 mM⁻¹
Association constant K eq with ARS [3]: 2.35 ± 0.1 mM⁻¹
Association constant with ARS relative to unconjugated CPBA ([3]; pH 7.4, CPBA‐peptide versus CPBA): 1.6 fold
Association constant K eq with D‐(‐)‐fructose [4]: 0.29 ± 0.0 mM⁻¹
Association constant K eq with D‐glucamine [5]: 3.87 ± 0.7 mM⁻¹

Compound: CSCC[C@@H]1NC(=O)[C@H](Cc2c[nH]c3ccccc23)NC(=O)[C@@H]2CCCN2C(=O)[C@H](Cc2c[nH]c3ccccc23)NC(=O)[C@H](CCCNC(=N)N)NC(=O)[C@H]([C@@H](C)O)NC(=O)[C@@H](NC(=O)[C@H](CCC(N)=O)NC(=O)CNC(=O)[C@H](CCC(N)=O)NC(=O)[C@@H](NC(=O)[C@H](C)NC(=O)[C@@H](NC(=O)CCOCCOCCOCCOCCOCCOCCNC(=O)c2ccc(B(O)O)cc2)C(C)C)[C@@H](C)O)CSSC[C@@H](C(=O)N2CCC[C@H]2C(=O)N2CCC[C@H]2C(=O)N[C@@H](CCC(N)=O)C(=O)NCC(=O)N[C@@H](Cc2c[nH]c3ccccc23)C(=O)NCC(=O)NCCOCCOCCOCCOCCOCCOCCC(N)=O)NC1=O [CPBA‐PEG‐MI] ({Benzoyl(4-B(OH)2)-PEG6}-VATQGQCTRWPWMCPPQGWG[PEG6]-NH2; disulfide 7-14)
Displacement of ARS from the peptide complex by D‐mannitol [2, 10]: not able to displace ARS
Displacement of ARS from the peptide complex by D‐(‐)‐fructose [4, 10]: not able to displace ARS
Interaction with D‐glucamine in ARS competition assay [5]: strongest interaction
Shift of the absorbance maximum of ARS upon ester formation [6]: shift of the absorbance maximum of ARS to shorter wavelengths
IC50 [7]: 1.5 µM

Binding to fibronectin after gel electrophoresis [8]: confirmed
Compound: O=C1c2ccccc2C(=O)c2c1cc(S(=O)(=O)O)c(O)c2O [ARS, Alizarin Red S]

IC50 ([7]; HEK SBE luciferase reporter cells, 4 nM myostatin, 48 h, 37 °C, n = 3, read-out: IC50, inhibition of myostatin‐induced SMAD phosphorylation): 1.7 µM
Compound: CSCC[C@@H]1NC(=O)[C@H](Cc2c[nH]c3ccccc23)NC(=O)[C@@H]2CCCN2C(=O)[C@H](Cc2c[nH]c3ccccc23)NC(=O)[C@H](CCCNC(=N)N)NC(=O)[C@H]([C@@H](C)O)NC(=O)[C@@H](NC(=O)[C@H](CCC(N)=O)NC(=O)CNC(=O)[C@H](CCC(N)=O)NC(=O)[C@@H](NC(=O)[C@H](C)NC(=O)[C@@H](NC(C)=O)C(C)C)[C@@H](C)O)CSSC[C@@H](C(=O)N2CCC[C@H]2C(=O)N2CCC[C@H]2C(=O)N[C@@H](CCC(N)=O)C(=O)NCC(=O)N[C@@H](Cc2c[nH]c3ccccc23)C(=O)NCC(=O)NCCOCCOCCOCCOCCOCCOCCC(N)=O)NC1=O [Acetyl‐MI] (Ac-VATQGQCTRWPWMCPPQGWG[PEG6]-NH2; disulfide 7-14)
Interaction with D‐glucamine in ARS competition assay [5]: nonbinding

Compound: O=C(O)c1ccc(B(O)O)cc1 [CPBA, 4‐Carboxy‐phenyl‐boronic acid, reference compound]
Association constant K eq with D‐mannitol [2]: 0.08 ± 0.0 mM⁻¹
Association constant K eq with ARS [3]: 1.46 ± 0.3 mM⁻¹
Association constant K eq with D‐(‐)‐fructose [4]: 0.11 ± 0.0 mM⁻¹
Association constant K eq with D‐glucamine [5]: 2.09 mM⁻¹ and 2.09 ± 0.6 mM⁻¹

Compound: CPBA–NQEQVSPL–5/6‐carboxyrhodamine 110
pH‐dependent binding to glycan structures of the ECM compared with FL2 ([9]; 100 μM, three hours at pH 9.4, washed at pH 4.1, 7.4, 8.0 or 9.4): comparable pH‐dependent binding behavior
Binding to CDM at pH 7.4 compared with FL2 ([9]; pH 7.4 wash): quantitatively weaker
